pIC50: −log10 of the molar value.

Common to all, as to format: functional, organism-based
For test [1], the system named is Human immunodeficiency virus 1. Put plainly: Antiviral activity against recombinant HIV-1 NL4-3 expressing HIV-1 JR-CSF envelope infected in U87.CD4.CCR5 cells assessed as inhibition of Env mediated cell entry by HIV-1 single round infection assay. Particulars: Human immunodeficiency virus 1, NL4-3, U87/CD4/CCR5; for pIC50: read-out: IC50; for IC50: read-out: pIC50 (converted); call rule not given here.

The test system of test [2] is Human immunodeficiency virus 1. Put plainly: Antiviral activity against recombinant HIV-1 NL4-3 expressing AMLV envelope infected in U87.CD4.CCR5 cells assessed as inhibition of Env mediated cell entry by HIV-1 single round infection assay.
Test [3] concerns Human immunodeficiency virus 1. Nature of the test: Antiviral activity against recombinant HIV-1 NL4-3 expressing HIV-1 B41 envelope infected in U87.CD4.CCR5 cells assessed as inhibition of Env mediated cell entry by HIV-1 single round infection assay. Particulars: Human immunodeficiency virus 1, NL4-3, U87/CD4/CCR5.
In test [4] the test system is Human immunodeficiency virus 1. Nature of the test: Antiviral activity against recombinant HIV-1 NL4-3 expressing HIV-1 HxBc2 envelope infected in U87.CD4.CXCR4 cells by HIV-1 single round infection assay. The settings on record: Human immunodeficiency virus 1, NL4-3, U87.CD4.CXCR4.

On to `COc1cnc(Cl)c2[nH]cc(C(=O)C(=O)N3CC4CN(C(=O)c5ccccc5)CC4C3)c12` (centres undefined), for which the pIC50 in test [1] is 4.00.

With `COc1cnc(-n2cnc(C)n2)c2[nH]cc(C(=O)C(=O)N3CC4CN(C(=O)c5ccccc5)CC4C3)c12` (centres undefined), in test [1], the pIC50 is 9.00 and the IC50 was 0.794 nM.

With `COc1cnc(-n2cnc(C)n2)c2[nH]cc(C(=O)C(=O)N3CC4CN(C(=O)C5=CCCCC5)CC4C3)c12` (centres undefined), in test [1], the negative-log IC50 (pIC50) is 8.70.

`COc1cnc(-n2cnc(C)n2)c2[nH]cc(C(=O)C(=O)N3CCC4(CCN(C(=O)c5ccccc5)CC4)C3)c12`: the IC50 result in test [2] was “Not Active”; in test [1], 12900 nM. The figures for the pIC50 in test [3], in test [4] and in test [1] were 5.41, 4.44 and 4.89, respectively.

For `COc1cnc(-n2cnc(C)n2)c2[nH]cc(C(=O)C(=O)NC3C4CN(C(=O)c5ccccc5)CC43)c12` (centres undefined), the IC50 entry in test [2] is on record as “Not Active”. The pIC50 was 7.07 in test [3], 7.16 in test [4] and 7.02 in test [1].

For `COc1cnc(-n2cnc(C)n2)c2[nH]cc(C(=O)C(=O)N3CC(CCC(=O)c4ccccc4)C3)c12`, the IC50 entry in test [2] is listed as “Not Active”. In addition, the values for the pIC50 in test [3], in test [4] and in test [1] were 8.15, 8.05 and 8.52, respectively.

On to `COc1cnc(-n2cnc(C)n2)c2[nH]cc(C(=O)C(=O)N3CC4C=NN(c5ccccc5)C4C3)c12` (centres undefined), for which the IC50 result in test [2] is “Not Active”. The pIC50 in test [3] was 8.22; in test [4], 7.10; in test [1] it was 8.10.

On to `COc1cnc(-n2cnc(C)n2)c2[nH]cc(C(=O)C(=O)N3CC=C(CNC(=O)c4ccccc4)CC3)c12`, for which the IC50 entry in test [2] is “Not Active”. In addition, the pIC50 in test [3] is 6.46; in test [4] it was 6.42; in test [1], 6.65.

Consider `COc1cnc(-n2cnc(C)n2)c2[nH]cc(C(=O)NCC3CN(C(=O)c4ccccc4)C3)c12`, for which, in test [2], the IC50 entry is “Not Active”. Besides, the pIC50 was 5.42 in test [3], 5.42 in test [4] and 5.60 in test [1].

For orientation: pIC50 means the IC50 on a negative log10 scale, so that one unit is a factor of ten.

These data come from ChEMBL document CHEMBL3745657, “Core chemotype diversification in the HIV-1 entry inhibitor class using field-based bioisosteric replacement” (Bioorg Med Chem Lett, 2016).
